Our source for the IC50 values is patent US9663523B2, “BET protein-inhibiting 5-aryltriazoleazepines” (BAYER PHARMA AKTIENGESELLSCHAFT, priority 2012, dated 2017).

Test [1] addresses BRD4(1) (amino acids 44-168) (Homo sapiens (Human), UniProt O60885). The test can be described thus: BRD4 binding strength, TR-FRET (HTRF) assay of BRD4(1) / acetylated histone H4 peptide interaction. As to conditions: inhibition of BRD4(1)/Ac-H4 peptide interaction. The source says: To assess the BRD4 binding strength of the compounds according to the invention, the ability thereof to inhibit the interaction between BRD4 and acetylated histone H4 in a dose-dependent manner was quantified. For this purpose, a time-resolved fluorescence resonance energy transfer (TR-FRET) assay was used, which measures the binding between N-terminally His6-tagged BRD4(1) (amino acids 44-168) and a synthetic acetylated histone H4 (Ac-H4) peptide with sequence […]-biotin. The recombinant BRD4 protein produced in-house according to Filippakopoulos et al., Cell, 2012, 149:214-231 was expressed in E. coli and purified by means of (Ni-NTA) affinity and (Sephadex G-75) size exclusion chromatography. The Ac-H4 peptide can be purchased, for example, from Biosyntan (Berlin, Germany). […] For this purpose, 100-fold concentrated solutions in DMSO were prepared by serial dilutions (1:3.4) of a 2 mM stock solution into a clear, 384-well microtitre plate (Greiner Bio-One, Frickenhausen, Germany). From this, 50 nl were transferred into a black test plate (Greiner Bio-One, Frickenhausen, Germany). […] This was followed by a 10-minute incubation step at 22° C. for the pre-equilibration of putative complexes between BRD4 and the substances. Subsequently, 3 μl of a solution of 1.67 times the concentration (in assay buffer) consisting of Ac-H4 peptide (83.5 nM) and TR-FRET detection reagents [16.7 nM anti-6His-XL665 and 3.34 nM streptavidin cryptate (both from Cisbio Bioassays, Codolet, France), and 668 mM potassium fluoride (KF)] were added. The mixture was then incubated in the dark at 22° C. for one hour and then at 4° C. overnight. The formation of BRD4/Ac-H4 complexes was determined by the measurement of the resonance energy transfer from the streptavidin-Eu cryptate to the anti-6His-XL665 antibody present in the reaction. […] The ratio of the emissions at 665 nm and at 622 nm was taken as an indicator of the amount of BRD4/Ac-H4 complexes formed.
A general note: Time-resolved FRET reads energy transfer from a long-lived donor to a nearby acceptor.

A further test deals with MOLM-13 cells. The test can be described thus: Cell proliferation (alamarBlue), MOLM-13. The note with it: Homo sapiens, acute myeloid leukaemia cell line, 96 hours incubation. Type of test: cell-based. The method, then:
(§1) The ability of the compounds according to the invention to inhibit the proliferation of various cell lines was determined.
(§2) Cell viability was determined by means of the alamarBlue® reagent (Invitrogen). The cells were sown at different densities (MOLM-13, LAPC-4, MOLP-8 and MDA-MB-231: 4000 cells/well; B16F10: 400 cells/well) in 100 μl of growth medium on 96-well microtitre plates. After overnight incubation at 37° C., the fluorescence values (CI values) were determined. The plates were then treated with various substance dilutions and incubated at 37° C. for 96 hours (MOLM-13, MDA-MB-231 and B16F10 cells), 120 hours (MOLP-8 cells) or 168 hours (LAPC-4 cells). Subsequently, the fluorescence values were determined (CO values). For the data analysis, the CI values were subtracted from the CO values and the results were compared between cells which had been treated with various dilutions of the substance or only with buffer solution.
(§3) The compounds according to the invention were tested in the cell lines in Table 2, which represent the indications specified by way of example:
(§4) The indications corresponding to the different cell lines can be found in Table 2.
(Alamar Blue is a resazurin reagent that responds to reducing activity.)

The next test concerns B16F10 cells. The test is described as follows: Cell proliferation (alamarBlue), B16F10. As to conditions: Mus musculus, B16-F10; melanoma cell line, 96 hours incubation. The class given is cell-based. The method, then: as §1, §2, §3, §4
A further test relates to LAPC-4 cells. The test can be described thus: Cell proliferation (alamarBlue), LAPC-4. Type of test: cell-based. As to conditions: Homo sapiens, LAPC4; prostate carcinoma (androgen receptor-positive) cell line, 168 hours incubation. The method, then:
as §1
as §2, with “values).” for “values). For the data analysis, the CI values were subtracted from the CO values and the results were compared between cells which had been treated with various dilutions of the substance or only with buffer solution.”
as §3, §4

Another test relates to MOLP-8 cells. The test can be described thus: Cell proliferation (alamarBlue), MOLP-8. Type of test: cell-based. As to conditions: Homo sapiens, multiple myeloma cell line, 120 hours incubation. The method, then: as §1
as §2, with “values).” for “values). For the data analysis, the CI values were subtracted from the CO values and the results were compared between cells which had been treated with various dilutions of the substance or only with buffer solution.”
as §3, §4

What is called IC50 is the midpoint of a concentration-inhibition curve. High values mean a need for much substance, low ones inhibition by little substance. For `CCOC(=O)CC1C=C(c2cccc(Cl)c2)c2ccccc2-n2c(C)nnc21` (centres unmarked) [Example 7, ethyl [6-(3-chlorophenyl)-1-methyl-4H-[1,2,4]triazolo[4,3-a][1]benzazepin-4-yl]acetate], the IC50 in test [1] came to 230 nM; in the test with MOLM-13 cells it was 720 nM; in the test on B16F10 cells, 780 nM; in the test on LAPC-4 cells, 750 nM.
In the case of `Cc1nnc2n1-c1ccccc1C(c1cccc(Cl)c1)=CC2CC(=O)N1CC2(COC2)C1` (stereo in doubt) [Example 11, (−)-2-[(4R)-6-(3-chlorophenyl)-1-methyl-4H-[1,2,4]triazolo[4,3-a][1]benzazepin-4-yl]-1-(2-oxa-6-azaspiro[3.3]hept-6-yl)ethanone], the IC50 in test [1] was 300 nM; in the test with MOLM-13 cells it was 4190 nM; with B16F10 cells, 9470 nM; in the test with LAPC-4 cells, 7890 nM.
In the case of `Cc1nc(CC2C=C(c3ccc(Cl)cc3)c3ccccc3-n3c(C)nnc32)no1` (centres unmarked) [Example 46, 6-(4-chlorophenyl)-1-methyl-4-[(5-methyl-1,2,4-oxadiazol-3-yl)methyl]-4H-[1,2,4]triazolo[4,3-a][1]benzazepine], the IC50 in test [1] was found to be 80 nM; in the test with MOLP-8 cells, 140 nM; in the test with MOLM-13 cells it was 270 nM.
On to `Cc1nnc(CC2C=C(c3ccc(Cl)cc3)c3ccccc3-n3c(C)nnc32)s1` (centres unmarked) [Example 41, 6-(4-chlorophenyl)-1-methyl-4-[(5-methyl-1,3,4-thiadiazol-2-yl)methyl]-4H-[1,2,4]triazolo[4,3-a][1]benzazepine], for which the IC50 came to 100 nM in test [1], 410 nM in the test with MOLP-8 cells and 720 nM with MOLM-13 cells.
For the compound `Cc1nnc2n1-c1ccccc1C(c1ccc(Cl)cc1)=CC2CC(=O)N1C2CCC1CC2` (centres unmarked) [Example 5, 1-(7-azabicyclo[2.2.1]hept-7-yl)-2-[6-(4-chlorophenyl)-1-methyl-4H-[1,2,4]triazolo[4,3-a][1]benzazepin-4-yl]ethanone], the half-maximal inhibitory concentration (IC50) in test [1] amounted to 1400 nM; with MOLM-13 cells, 1120 nM; with B16F10 cells, 870 nM; in the test on LAPC-4 cells, 620 nM.
As to `Cc1nnc2n1-c1ccccc1C(c1ccc(Cl)cc1)=CC2Cc1nnc(-c2cccnc2)o1` (centres unmarked) [Example 44, 6-(4-chlorophenyl)-1-methyl-4-{[5-(pyridin-3-yl)-1,3,4-oxadiazol-2-yl]methyl}-4H-[1,2,4]triazolo[4,3-a][1]benzazepine], the figures for the IC50 (in test [1]; in the test on MOLP-8 cells; in the test with MOLM-13 cells) were 90 nM, 220 nM and 420 nM, respectively.
For the compound `CC(=O)NNC(=O)CC1C=C(c2ccc(Cl)cc2)c2ccccc2-n2c(C)nnc21` (stereo in doubt) [Example 40, N′-acetyl-2-[(4R)-6-(4-chlorophenyl)-1-methyl-4H-[1,2,4]triazolo[4,3-a][1]benzazepin-4-yl]acetohydrazide], the results for the half-maximal inhibitory concentration (IC50) (in test [1]; with MOLP-8 cells; in the test with MOLM-13 cells) were 40 nM, 80 nM and 170 nM, respectively.
Regarding `Cc1nnc2n1-c1ccccc1C(c1ccc(Cl)cc1)=CC2CC(=O)OC(C)(C)C` (stereo in doubt) [Example 9, tert-butyl (−)-[(4R)-6-(4-chlorophenyl)-1-methyl-4H-[1,2,4]triazolo[4,3-a][1]benzazepin-4-yl]acetate], the IC50 turned out to be 430 nM in the test on MOLM-13 cells, 430 nM with B16F10 cells and 310 nM in the test on LAPC-4 cells.
With `Cc1nnc2n1-c1ccccc1C(c1ccc(Cl)cc1)=CC2Cc1nnc(-c2cccnc2)o1` (stereo in doubt) [Example 45, (−)-(4R)-6-(4-chlorophenyl)-1-methyl-4-{[5-(pyridin-3-yl)-1,3,4-oxadiazol-2-yl]methyl}-4H-[1,2,4]triazolo[4,3-a][1]benzazepine], the concentration for half-maximal inhibition (IC50) in test [1] amounted to 50 nM; with MOLM-13 cells, 100 nM; with B16F10 cells, 60 nM.
Turning to `Cc1nnc(CC2C=C(c3ccc(Cl)cc3)c3cc(-c4c(C)noc4C)ccc3-n3c(C)nnc32)o1` (centres unmarked) [Example 48, 6-(4-chlorophenyl)-8-(3,5-dimethyl-1,2-oxazol-4-yl)-1-methyl-4-[(5-methyl-1,3,4-oxadiazol-2-yl)methyl]-4H-[1,2,4]triazolo[4,3-a][1]benzazepine], the IC50 in test [1] was 340 nM; in the test on MOLP-8 cells, 1620 nM; with MOLM-13 cells, 1380 nM.
For the compound `CCOC(=O)CC1C=C(c2ccc(Cl)cc2)c2ccccc2-n2c(C)nnc21` (centres unmarked) [Example 1, ethyl [6-(4-chlorophenyl)-1-methyl-4H-[1,2,4]triazolo[4,3-a][1]benzazepin-4-yl]acetate], the IC50 in test [1] came out at 180 nM; in the test on MOLM-13 cells it was 330 nM; with B16F10 cells, 300 nM; in the test with LAPC-4 cells, 260 nM.
Turning to `Cc1nnc2n1-c1ccccc1C(c1ccc(Cl)cc1)=CC2CC(=O)N1CC2(COC2)C1` (centres unmarked) [Example 3, 2-[6-(4-chlorophenyl)-1-methyl-4H-[1,2,4]triazolo[4,3-a][1]benzazepin-4-yl]-1-(2-oxa-6-azaspiro[3.3]hept-6-yl)ethanone], the concentration for half-maximal inhibition (IC50) in test [1] was determined as 220 nM; with MOLM-13 cells it was 630 nM; in the test with B16F10 cells, 740 nM; in the test on LAPC-4 cells, 470 nM.
Consider `Cc1nnc(CC2C=C(c3ccc(Cl)cc3)c3ccccc3-n3c(C)nnc32)o1` (centres unmarked) [Example 39, 6-(4-chlorophenyl)-1-methyl-4-[(5-methyl-1,3,4-oxadiazol-2-yl)methyl]-4H-[1,2,4]triazolo[4,3-a][1]benzazepine], for which the half-inhibitory concentration (IC50) in test [1] is 40 nM; in the test with MOLM-13 cells, 320 nM.
On to `Cc1nnc2n1-c1ccccc1C(c1ccc(Cl)cc1)=CC2Cc1nnc(C2CC2)o1` (centres unmarked) [Example 43, 6-(4-chlorophenyl)-4-[(5-cyclopropyl-1,3,4-oxadiazol-2-yl)methyl]-1-methyl-4H-[1,2,4]triazolo[4,3-a][1]benzazepine], for which the IC50 was found to be 130 nM in test [1], 210 nM in the test on MOLP-8 cells and 370 nM in the test with MOLM-13 cells.
Consider `Cc1noc(CC2C=C(c3ccc(Cl)cc3)c3ccccc3-n3c(C)nnc32)n1` (centres unmarked) [Example 34, 6-(4-chlorophenyl)-1-methyl-4-[(3-methyl-1,2,4-oxadiazol-5-yl)methyl]-4H-[1,2,4]triazolo[4,3-a][1]benzazepine], for which the IC50 in test [1] worked out at 90 nM; with MOLM-13 cells, 360 nM.
As for `CCOC(=O)CC1C=C(c2ccc(Cl)cc2)c2ccccc2-n2c(C)nnc21` (stereo in doubt) [Example 2, ethyl (−)-(4R)-[6-(4-chlorophenyl)-1-methyl-4H-[1,2,4]triazolo[4,3-a][1]benzazepin-4-yl]acetate], the IC50 in test [1] is 30 nM; in the test with MOLM-13 cells, 120 nM; in the test with B16F10 cells, 100 nM; with LAPC-4 cells, 80 nM.
`COc1ccc2c(c1)C(c1ccc(Cl)cc1)=CC(Cc1nnc(C)o1)c1nnc(C)n1-2` (centres unmarked) [Example 47, 6-(4-chlorophenyl)-8-methoxy-1-methyl-4-[(5-methyl-1,3,4-oxadiazol-2-yl)methyl]-4H-[1,2,4]triazolo[4,3-a][1]benzazepine]: the values for the half-inhibitory concentration (IC50) (in test [1]; in the test with MOLP-8 cells; in the test on MOLM-13 cells) were 50 nM, 90 nM and 150 nM, respectively.
On to `Cc1nnc2n1-c1ccccc1C(c1ccc(Cl)cc1)=CC2CC(=O)N1C2CCC1CC2` (stereo in doubt) [Example 6, (−)-1 (7-azabicyclo[2.2.1]hept-7-yl)-2-[(4R)-6-(4-chlorophenyl)-1-methyl-4H-[1,2,4]triazolo[4,3-a][1]benzazepin-4-yl]ethanone], for which the IC50 in test [1] was 600 nM; in the test with MOLM-13 cells, 670 nM; with B16F10 cells, 1020 nM; in the test with LAPC-4 cells it was 1060 nM.
